Experimental data as given in PubChem BioAssay (NCI).
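How tested: cells in 96-well plates exposed to compound for 48 hours at five concentrations. GI50 marks 50% less growth. The concentration for full growth arrest is given as TGI.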

Tests used:
Test in all cases: growth of human tumour cells (NCI), 48 h
SF-295 CNS = test system: SF-295 CNS
NCI-H23 lung = test system: NCI-H23 lung
ACHN renal = test system: ACHN renal
SNB-75 CNS = test system: SNB-75 CNS
NCI-H522 lung = test system: NCI-H522 lung
UACC-257 melanoma = test system: UACC-257 melanoma
SNB-19 CNS = test system: SNB-19 CNS
CCRF-CEM leukemia = test system: CCRF-CEM leukemia
NCI-H226 lung = test system: NCI-H226 lung
PC-3 prostate = test system: PC-3 prostate
UACC-62 melanoma = test system: UACC-62 melanoma
OVCAR-4 ovarian = test system: OVCAR-4 ovarian
COLO 205 colon = test system: COLO 205 colon
BT-549 breast = test system: BT-549 breast
K-562 leukemia = test system: K-562 leukemia
RPMI-8226 leukemia = test system: RPMI-8226 leukemia
MCF7 breast = test system: MCF7 breast
RXF 393 renal = test system: RXF 393 renal
HCT-116 colon = test system: HCT-116 colon
EKVX NSCLC = test system: EKVX NSCLC
TK-10 renal = test system: TK-10 renal
SF-268 CNS = test system: SF-268 CNS
T-47D breast = test system: T-47D breast
SK-MEL-2 melanoma = test system: SK-MEL-2 melanoma
U251 CNS = test system: U251 CNS
MDA-MB-231 breast = test system: MDA-MB-231 breast
DU-145 prostate = test system: DU-145 prostate
M14 melanoma = test system: M14 melanoma
OVCAR-8 ovarian = test system: OVCAR-8 ovarian
SW-620 colon = test system: SW-620 colon
LOX IMVI melanoma = test system: LOX IMVI melanoma
SR leukemia = test system: SR leukemia
SN12C renal = test system: SN12C renal
IGROV1 ovarian = test system: IGROV1 ovarian
HS 578T breast = test system: HS 578T breast
CAKI-1 renal = test system: CAKI-1 renal
KM12 colon = test system: KM12 colon
OVCAR-5 ovarian = test system: OVCAR-5 ovarian
HT29 colon = test system: HT29 colon
HCC-2998 colon = test system: HCC-2998 colon
SK-OV-3 ovarian = test system: SK-OV-3 ovarian
SF-539 CNS = test system: SF-539 CNS
A549 NSCLC = test system: A549 NSCLC
HOP-92 NSCLC = test system: HOP-92 NSCLC
HL-60(TB) leukemia = test system: HL-60(TB) leukemia
A498 renal = test system: A498 renal
NCI-H460 lung = test system: NCI-H460 lung
SK-MEL-28 melanoma = test system: SK-MEL-28 melanoma
OVCAR-3 ovarian = test system: OVCAR-3 ovarian
SK-MEL-5 melanoma = test system: SK-MEL-5 melanoma
NCI/ADR-RES ovarian = test system: NCI/ADR-RES ovarian
HOP-62 NSCLC = test system: HOP-62 NSCLC
HCT-15 colon = test system: HCT-15 colon
UO-31 renal = test system: UO-31 renal
MDA-MB-435 = test system: MDA-MB-435
MOLT-4 leukemia = test system: MOLT-4 leukemia
MALME-3M melanoma = test system: MALME-3M melanoma

C[C@H](Nc1ccc(C#N)n(C)c1=O)c1cc2cc(Cl)ccc2[nH]c1=O
GI50 (SF-295 CNS): 26.9 µM | TGI (SF-295 CNS): 94.3 µM | GI50 (NCI-H23 lung): 35.4 µM | TGI (NCI-H23 lung): > 100 µM | GI50 (ACHN renal): 27 µM | TGI (ACHN renal): > 100 µM | GI50 (SNB-75 CNS): 4.67 µM | TGI (SNB-75 CNS): 55.4 µM | GI50 (NCI-H522 lung): 29.6 µM | TGI (NCI-H522 lung): > 100 µM | GI50 (UACC-257 melanoma): 32.6 µM | TGI (UACC-257 melanoma): > 100 µM | GI50 (SNB-19 CNS): 32.5 µM | TGI (SNB-19 CNS): > 100 µM | GI50 (CCRF-CEM leukemia): 24.5 µM | TGI (CCRF-CEM leukemia): > 100 µM | GI50 (NCI-H226 lung): 23.4 µM | TGI (NCI-H226 lung): > 100 µM | GI50 (PC-3 prostate): 13.3 µM | TGI (PC-3 prostate): 83.5 µM | GI50 (UACC-62 melanoma): 20.1 µM | TGI (UACC-62 melanoma): 77.6 µM | GI50 (OVCAR-4 ovarian): 19.3 µM | TGI (OVCAR-4 ovarian): 85.6 µM | GI50 (COLO 205 colon): 19 µM | TGI (COLO 205 colon): 40.2 µM | GI50 (BT-549 breast): 12.2 µM | TGI (BT-549 breast): 70.1 µM | GI50 (K-562 leukemia): 27.1 µM | TGI (K-562 leukemia): > 100 µM | GI50 (RPMI-8226 leukemia): 14.2 µM | TGI (RPMI-8226 leukemia): 49.3 µM | GI50 (MCF7 breast): 23.2 µM | TGI (MCF7 breast): > 100 µM | GI50 (RXF 393 renal): 13.3 µM | TGI (RXF 393 renal): 67.7 µM | GI50 (HCT-116 colon): 23.9 µM | TGI (HCT-116 colon): > 100 µM | GI50 (EKVX NSCLC): 21.1 µM | TGI (EKVX NSCLC): > 100 µM | GI50 (TK-10 renal): 37.8 µM | TGI (TK-10 renal): > 100 µM | GI50 (SF-268 CNS): 22.7 µM | TGI (SF-268 CNS): > 100 µM | GI50 (T-47D breast): 17.3 µM | TGI (T-47D breast): 94.4 µM | GI50 (SK-MEL-2 melanoma): 26.7 µM | TGI (SK-MEL-2 melanoma): 94 µM | GI50 (U251 CNS): 30 µM | TGI (U251 CNS): > 100 µM | GI50 (MDA-MB-231 breast): 23.2 µM | TGI (MDA-MB-231 breast): 98.4 µM | GI50 (DU-145 prostate): 33 µM | TGI (DU-145 prostate): > 100 µM | GI50 (M14 melanoma): 23.7 µM | TGI (M14 melanoma): > 100 µM | GI50 (OVCAR-8 ovarian): 33.2 µM | TGI (OVCAR-8 ovarian): > 100 µM | GI50 (SW-620 colon): 46.3 µM | TGI (SW-620 colon): > 100 µM | GI50 (LOX IMVI melanoma): 33.1 µM | TGI (LOX IMVI melanoma): > 100 µM | GI50 (SR leukemia): 27.7 µM | TGI (SR leukemia): > 100 µM | GI50 (SN12C renal): 26.7 µM | TGI (SN12C renal): > 100 µM | GI50 (IGROV1 ovarian): 16 µM | TGI (IGROV1 ovarian): 89.7 µM | GI50 (HS 578T breast): 13.7 µM | TGI (HS 578T breast): > 100 µM | GI50 (CAKI-1 renal): 19.6 µM | TGI (CAKI-1 renal): > 100 µM | GI50 (KM12 colon): 38.3 µM | TGI (KM12 colon): > 100 µM | GI50 (OVCAR-5 ovarian): 66.6 µM | TGI (OVCAR-5 ovarian): > 100 µM | GI50 (HT29 colon): 33.1 µM | TGI (HT29 colon): > 100 µM | GI50 (HCC-2998 colon): 33.5 µM | TGI (HCC-2998 colon): > 100 µM | GI50 (SK-OV-3 ovarian): 23.9 µM | TGI (SK-OV-3 ovarian): 75.1 µM | GI50 (SF-539 CNS): 40.2 µM | TGI (SF-539 CNS): > 100 µM | GI50 (A549 NSCLC): 24.3 µM | TGI (A549 NSCLC): > 100 µM | GI50 (HOP-92 NSCLC): 2.8 µM | TGI (HOP-92 NSCLC): 37.3 µM | GI50 (HL-60(TB) leukemia): 22.4 µM | TGI (HL-60(TB) leukemia): 58.5 µM | GI50 (A498 renal): 20.4 µM | TGI (A498 renal): 92.2 µM | GI50 (NCI-H460 lung): 32.8 µM | TGI (NCI-H460 lung): > 100 µM | GI50 (SK-MEL-28 melanoma): 28.5 µM | TGI (SK-MEL-28 melanoma): > 100 µM | GI50 (OVCAR-3 ovarian): 24.1 µM | TGI (OVCAR-3 ovarian): > 100 µM | GI50 (SK-MEL-5 melanoma): 15.6 µM | TGI (SK-MEL-5 melanoma): 29.1 µM | GI50 (NCI/ADR-RES ovarian): 26.1 µM | TGI (NCI/ADR-RES ovarian): > 100 µM | GI50 (HOP-62 NSCLC): 25.7 µM | TGI (HOP-62 NSCLC): > 100 µM | GI50 (HCT-15 colon): 28.6 µM | TGI (HCT-15 colon): > 100 µM | GI50 (UO-31 renal): 17.6 µM | TGI (UO-31 renal): > 100 µM | GI50 (MDA-MB-435): 28.6 µM | TGI (MDA-MB-435): 88.7 µM | GI50 (MOLT-4 leukemia): 18.6 µM | TGI (MOLT-4 leukemia): 64.1 µM | GI50 (MALME-3M melanoma): 25.3 µM | TGI (MALME-3M melanoma): > 100 µM
